Among the data in paper PMC5154799 (International journal of antimicrobial agents, 2016) are IC50 values, retold here.

The target of the test is thioredoxin reductase (TrxR, TVAG_474980) (Trichomonas vaginalis, UniProt A0A8U0WQ27). Put plainly: DTNB reduction assay with NADPH, recombinant TrxR and Trx, absorbance at […] nm. Type of test: biochemical.

pIC50: −log10 of the molar value.

As a reminder, the pIC50 is the IC50 on a negative log10 scale, so that one unit is a factor of ten. Turning to `CC(=O)OC[C@H]1O[C@@H]([S-])[C@H](OC(C)=O)[C@@H](OC(C)=O)[C@@H]1OC(C)=O.CCP(CC)CC.[Au+]` [AF, auranofin], the pIC50 is 7.07.
